The values below come from ChEMBL document CHEMBL4321874 (J Med Chem, 2020).

In one assay the test system is COLO 205. The assay can be described thus: Antiproliferative activity against human COLO205 cells assessed as reduction in cell growth after 3 days by CellTiter-Glo luminescence assay. Particulars: COLO 205, 72 h. Type of assay: functional, cell-based. In general terms: Cellular ATP, detected with luciferase, serves as a proxy for viable cell number.
A short description of assay [1]: Drug metabolism in aqueous media assessed as formaldehyde adduct formation at 5 nmol after 30 mins in presence of excess formaldehyde by QTOF-UPLC analysis.
Assay [2] in a line: Drug metabolism in reaction buffer containing 50 mM HEPES, 0.1 mM orthovanadate, 0.01% BSA, 10 mM MgCl2, and 1 mM DTT at pH 7.5.
Assay [3] can be described thus: Drug metabolism in reaction buffer containing 25 mM HEPES, 0.1% Tween 20, 0.01% BSA, 10 mM Mg(OAc)2, and 1 mM DTT at pH 7.5.
Assay [4] in a line: Drug metabolism in reaction buffer containing 20 mM HEPES, 10 mM Mg(OAc)2, and 1 mM DTT at pH 7.5.
In assay [5] the target is T1, CDC7/DBF4 (Cell division cycle 7-related protein kinase/Activator of S phase kinase) (Homo sapiens, UniProt O00311). The assay can be described thus: Inhibition of N-terminal GST-fused full-length human CDC7 (1 to 574 end residues)/DBF4 (1 to 674 residues) expressed in baculovirus expression system using MCM2 as substrate preincubated with enzyme for 10 mins prior to 1 uM ATP addition by HTRF transcreener ADP assay. For orientation: TR-FRET usually uses a lanthanide donor and a delayed reading to cut background.

In assay [6] the target is Cyclin-dependent kinase 2/cyclin E1 (Homo sapiens, UniProt P24941). The assay can be described thus: Inhibition of N-terminal GST-tagged full-length human CDK2 (1 to 298 residues)/Cyclin E (1 to 410 residues) expressed in baculovirus expression system using histone H1 as susbtrate after 90 mins by Kinase-Glo luminescence assay. Background: In Kinase-Glo more light means more ATP remaining.

The target in assay [7] is Rho-associated protein kinase 1 (Homo sapiens, UniProt Q13464). The assay can be described thus: Inhibition of N-terminal GST-tagged human ROCK1 catalytic domain (1 to 477 residues) expressed in baculovirus expression system using biotin-STK-substrate 2 as substrate preincubated with enzyme for 5 mins followed by ATP addition and measured after 2 hrs by TR-FRET assay.
The species entered for assay [8] is Homo sapiens. In words: Selectivity index, ratio of IC50 for N-terminal GST-tagged full-length human CDK2 (1 to 298 residues)/Cyclin E (1 to 410 residues) expressed in baculovirus expression system to IC50 for N-terminal GST-fused full-length human CDC7 (1 to 574 end residues)/DBF4 (1 to 674 residues) expressed in baculovirus expression system.
For assay [9], the species on record is Homo sapiens. The assay can be described thus: Selectivity index, ratio of IC50 N-terminal GST-tagged human ROCK1 catalytic domain (1 to 477 residues) expressed in baculovirus expression system to IC50 for N-terminal GST-fused full-length human CDC7 (1 to 574 end residues)/DBF4 (1 to 674 residues) expressed in baculovirus expression system.
For assay [10], the target named is T1, CDC7/DBF4 (Cell division cycle 7-related protein kinase/Activator of S phase kinase). In words: Inhibition of N-terminal GST-fused full-length human CDC7 (1 to 574 end residues)/DBF4 (1 to 674 residues) expressed in baculovirus expression system using MCM2 as substrate in presence of 50 uM ATP by HTRF transcreener ADP assay.
The target is the same in assay [11]. In words: Inhibition of N-terminal GST-fused full-length human CDC7 (1 to 574 end residues)/DBF4 (1 to 674 residues) expressed in baculovirus expression system using MCM2 as substrate preincubated with enzyme for 60 mins prior to 50 uM ATP addition by HTRF transcreener ADP assay.
The target of assay [12] is Cell division cycle 7-related protein kinase (Homo sapiens, UniProt O00311). The assay can be described thus: Inhibition of CDC7 in human HeLa cells assessed as inhibition of MCM2 phosphorylation at Ser40 residue in human HeLa cells after 7 hrs by Western blot analysis. Type of assay: cell-based.

Turning to `Cc1n[nH]cc1-c1cc2nc([C@@H]3CC4CCN3CC4)[nH]c(=O)c2s1` [SIMUROSERTIB], the EC50 – broadly, the concentration at which the effect is half-maximal – in the assay on COLO 205 is 81 nM. The Drug metabolism result in assay [1], in [2], in [3] and in assay [4] was “Metabolite not detected” each time.
As for `Cc1n[nH]cc1-c1cc2nc([C@@H]3CCCN3C)[nH]c(=O)c2s1`, the IC50 (commonly the concentration at which inhibition is half-maximal) in assay [5] was 1.9 nM; in assay [6] it was more than 10 µM; in [7], 160 nM. Moreover, the figures for the Ratio IC50 in the assay listed under Homo sapiens [8] and in the assay filed under Homo sapiens [9] were more than 5300 and 84, respectively.
In the case of `Cc1n[nH]cc1-c1cc2nc([C@@H]3CCCCCN3)[nH]c(=O)c2s1`, the IC50 worked out at 1.2 nM in assay [5], 2.8 µM in assay [6] and 450 nM in assay [7]. For the same molecule, the Ratio IC50 came to 2300 in the assay filed under Homo sapiens [8] and 380 in the assay filed under Homo sapiens [9].
For the molecule `Cc1n[nH]cc1-c1cc2nc(C34CC(CN3)C4)[nH]c(=O)c2s1`, the IC50 in [5] was 0.16 nM; in assay [6] it was 2.7 µM; in [7], 220 nM; in assay [10], 77 nM; in assay [11], 2.1 nM; in assay [12], 130 nM. In the assay with COLO 205, the EC50 was determined as 750 nM.
As to `Cc1n[nH]cc1-c1cc2nc([C@@H]3CCC(C)(C)N3)[nH]c(=O)c2s1`, the half-maximal inhibitory concentration (IC50) was 1.9 nM in assay [5], more than 10 µM in assay [6] and 1500 nM in assay [7]. Also, the figures for the Ratio IC50 in the assay listed under Homo sapiens [8] and in the assay filed under Homo sapiens [9] were more than 5300 and 790, respectively.
Taken in the same sequence, the figures for `Cc1n[nH]cc1-c1cc2nc([C@@H]3CCCN3)[nH]c(=O)c2s1` were 0.71 nM, 3.9 µM, 360 nM, 5500 and 510.
Consider `O=c1[nH]c([C@@H]2CCCCN2)nc2cc(-c3c[nH]nc3C(F)(F)F)sc12`, for which the IC50 in assay [5] amounted to 0.43 nM; in [6], 9.5 µM; in [7], 530 nM; in [10] it was 72 nM; in [11], 0.72 nM; in assay [12], 41 nM. Further, the EC50 with COLO 205 is 230 nM.
Consider `Cc1n[nH]cc1-c1cc2nc([C@]3(C)CCCN3)[nH]c(=O)c2s1`, for which the half-maximal inhibitory concentration (IC50) is 9.8 nM in assay [5], 9.9 µM in assay [6] and 270 nM in assay [7]. Besides, the Ratio IC50 in the assay listed under Homo sapiens [8] came out at 1000; in the assay filed under Homo sapiens [9], 28.
On to `Cc1n[nH]cc1-c1cc2nc([C@H]3CCCCN3)[nH]c(=O)c2s1`, for which the concentration for half-maximal inhibition (IC50) was 0.91 nM in [5], 4.8 µM in assay [6] and 370 nM in assay [7].
With `Cc1n[nH]cc1-c1cc2nc([C@@H]3C[C@H](C)CN3)[nH]c(=O)c2s1`, the 50% inhibitory concentration (IC50) came out at 1.3 nM in assay [5], 3.7 µM in [6] and 630 nM in assay [7]. Also, the values for the Ratio IC50 in the assay listed under Homo sapiens [8] and in the assay filed under Homo sapiens [9] were 2800 and 480, respectively.
With `Cc1n[nH]cc1-c1cc2nc(C34CCC(CC3)N4)[nH]c(=O)c2s1`, the IC50 worked out at 0.16 nM in assay [5], 1.5 µM in assay [6] and 96 nM in assay [7]. In addition, the Ratio IC50 in the assay listed under Homo sapiens [8] was 9400; in the assay filed under Homo sapiens [9], 600. Moreover, the Drug metabolism entry in assay [1], in assay [2], in assay [3] and in [4] was “Metabolite not detected” in each case.
For the molecule `Cc1n[nH]cc1-c1cc2nc([C@@H]3CCN3)[nH]c(=O)c2s1`, the values for the half-maximal inhibitory concentration (IC50) in assay [5], in assay [6] and in [7] were 2.1 nM, 6.9 µM and 760 nM, respectively. For the same molecule, the Ratio IC50 was 3300 in the assay listed under Homo sapiens [8] and 360 in the assay listed under Homo sapiens [9].
Take `Cc1n[nH]cc1-c1cc2nc([C@H]3NCC[C@@H]3C)[nH]c(=O)c2s1`: the 50% inhibitory concentration (IC50) in assay [5] amounted to 0.61 nM; in assay [6], 0.62 µM; in assay [7], 130 nM. The Ratio IC50 amounted to 1000 in the assay filed under Homo sapiens [8] and 210 in the assay listed under Homo sapiens [9].
With `Cc1n[nH]cc1-c1cc2nc([C@H]3CC4CCN3CC4)[nH]c(=O)c2s1`, the IC50 in assay [5] is 1 nM; in assay [6], more than 10 µM; in [7], 460 nM.
On to `Cc1n[nH]cc1-c1cc2nc([C@@H]3CC=CCN3)[nH]c(=O)c2s1`, for which the IC50 turned out to be 0.53 nM in [5], 4.7 µM in assay [6] and 340 nM in [7]. Also, the Ratio IC50 in the assay listed under Homo sapiens [8] was 8900; in the assay filed under Homo sapiens [9], 640.
